Laboratory results taken from the NIST ThermoML archive (doi:10.1016/j.fluid.2006.10.025).
Where “and” joins values, the source holds several entries; their conditions need not be identical. Identical values can stand only once. Numbers after ± are expanded uncertainties.

Conditions: 101.33 kPa, Liquid

OCC(F)(F)C(F)(F)C(F)(F)C(F)(F)C(F)(F)C(F)F [1,1,7-trihydrododecafluoroheptan-1-ol]
Conditions	mass density
293.15 K	1750.1 ± 7.8 kg/m3 and 1750.2 ± 7.8 kg/m3
303.15 K	1732.7 ± 7.6 kg/m3
313.15 K	1715 ± 7.4 kg/m3
323.15 K	1696.9 ± 7.3 kg/m3
333.15 K	1678.5 ± 7.1 kg/m3
343.15 K	1659.7 ± 6.9 kg/m3
